{"source": "patent US8592371B2", "about": "“Aminotetrahydropyrans as dipeptidyl peptidase-IV inhibitors for the treatment or prevention of diabetes” (Merck Sharp & Dohme Corp, priority 2008, dated 2013)", "origin": "cited, not measured here", "key": {"DPP-4": {"biological_target": "DPP-4 (Homo sapiens (Human), UniProt P27487)", "sequence (P27487 39-766, species assumed)": "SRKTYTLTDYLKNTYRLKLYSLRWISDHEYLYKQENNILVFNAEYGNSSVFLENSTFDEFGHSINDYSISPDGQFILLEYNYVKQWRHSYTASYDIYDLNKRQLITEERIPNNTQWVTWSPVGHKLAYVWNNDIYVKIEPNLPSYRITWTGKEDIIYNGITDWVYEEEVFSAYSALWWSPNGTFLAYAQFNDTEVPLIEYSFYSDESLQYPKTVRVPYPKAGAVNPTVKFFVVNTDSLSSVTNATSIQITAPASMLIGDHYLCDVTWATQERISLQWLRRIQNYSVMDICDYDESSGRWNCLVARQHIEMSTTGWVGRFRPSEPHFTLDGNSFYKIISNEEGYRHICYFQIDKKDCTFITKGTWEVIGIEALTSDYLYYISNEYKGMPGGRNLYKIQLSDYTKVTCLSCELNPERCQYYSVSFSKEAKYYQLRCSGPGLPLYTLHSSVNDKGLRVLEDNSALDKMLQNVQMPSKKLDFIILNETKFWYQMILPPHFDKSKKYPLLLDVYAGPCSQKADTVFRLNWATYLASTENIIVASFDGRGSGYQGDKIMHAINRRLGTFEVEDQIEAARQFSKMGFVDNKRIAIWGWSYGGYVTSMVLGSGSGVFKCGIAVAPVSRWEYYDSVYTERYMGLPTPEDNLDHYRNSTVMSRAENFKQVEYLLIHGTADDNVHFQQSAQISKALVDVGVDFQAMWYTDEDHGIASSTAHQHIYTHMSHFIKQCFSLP", "conditions": "cited from earlier work"}, "cardiac allograft": {"system": "cardiac allograft", "conditions": "rats; from day 7 to day 14; cited from earlier work"}, "hematopoiesis": {"system": "hematopoiesis", "conditions": "mouse, cyclophosphamide-induced neutropenia; cited from earlier work"}}, "data": [{"compound": "diprotin A", "values": [{"measurement": "degradation of GRF in plasma to GRF[3-44]", "setting": "DPP-4", "value": "prevented"}]}, {"compound": "CC(C)N1CCC(c2ccccc2)(c2ccccc2)CC1", "note": "[Prodipine, Pro-Pro-diphenyl-phosphonate]", "values": [{"measurement": "cardiac allograft survival", "setting": "cardiac allograft", "value": "double"}]}, {"compound": "CC(C)[C@H](N)C(=O)N1CCC[C@H]1B(O)O", "note": "[Val-Boro-Pro]", "values": [{"measurement": "hematopoiesis", "setting": "hematopoiesis", "value": "stimulated hematopoiesis"}]}]}
